{"source": "patent US4485110A", "about": "“β-Lactam compounds, and use” (priority 1980, dated 1984)", "type_in_all_cases": "cell-based", "key": {"[1]": {"system": "K. aerogenes A", "assay": "Antibacterial activity, broth MIC", "details": "Klebsiella aerogenes; compound alone, broth; read-out: Broth MIC", "from_the_text": "(§1) The antibacterial activity of a number of compounds described in the foregoing Examples against a number of organisms is shown in Tables 1 and 10."}, "[2]": {"system": "E. coli JT 39 R^+", "assay": "Antibacterial activity, broth MIC", "details": "Escherichia coli; compound alone, broth; read-out: Broth MIC", "from_the_text": "as §1"}, "[3]": {"system": "E. coli 0111", "assay": "Antibacterial activity, broth MIC", "details": "Escherichia coli, compound alone", "from_the_text": "as §1"}, "[4]": {"system": "S. aureus Oxford", "assay": "Antibacterial activity, broth MIC", "details": "Staphylococcus aureus, compound alone", "from_the_text": "as §1"}, "[5]": {"system": "P. mirabilis 977", "assay": "Antibacterial activity, broth MIC", "details": "Proteus mirabilis, compound alone", "from_the_text": "as §1"}, "[6]": {"system": "P. morganii I 580", "assay": "Antibacterial activity, broth MIC", "details": "Morganella morganii, I580, compound alone", "from_the_text": "as §1"}, "[7]": {"system": "P. rettgeri WM 16", "assay": "Antibacterial activity, broth MIC", "details": "Providencia rettgeri, WM16, compound alone", "from_the_text": "as §1"}, "[8]": {"system": "S. faecalis I", "assay": "Antibacterial activity, broth MIC", "details": "Enterococcus faecalis; compound alone, broth; read-out: Broth MIC", "from_the_text": "as §1"}, "[9]": {"system": "S. aureus Russell", "assay": "Antibacterial activity, broth MIC", "details": "Staphylococcus aureus, compound alone", "from_the_text": "as §1"}, "[10]": {"system": "S. pyogenes CN 10", "assay": "Antibacterial activity, broth MIC", "details": "Streptococcus pyogenes, CN10, compound alone", "from_the_text": "as §1"}, "[11]": {"system": "S. typhimurium CT 10", "assay": "Antibacterial activity, broth MIC", "details": "Salmonella enterica, compound alone", "from_the_text": "as §1"}, "[12]": {"system": "E. cloacae N 1", "assay": "Antibacterial activity, broth MIC", "details": "Enterobacter cloacae, N1, compound alone", "from_the_text": "as §1"}, "[13]": {"system": "S. pneumoniae CN 33", "assay": "Antibacterial activity, broth MIC", "details": "Streptococcus pneumoniae, CN33, compound alone", "from_the_text": "as §1"}, "[14]": {"system": "P. vulgaris WO 91", "assay": "Antibacterial activity, broth MIC", "details": "Proteus vulgaris, WO91, compound alone", "from_the_text": "as §1"}, "[15]": {"system": "C. freundii E 8", "assay": "Antibacterial activity, broth MIC", "details": "Citrobacter freundii, E8; compound alone, broth; read-out: Broth MIC", "from_the_text": "as §1"}, "[16]": {"system": "S. sonnei MB 11967", "assay": "Antibacterial activity, broth MIC", "details": "Shigella sonnei, MB11967, compound alone", "from_the_text": "as §1"}, "[17]": {"system": "S. aureus 1517", "assay": "Antibacterial activity, broth MIC", "details": "Staphylococcus aureus, compound alone", "from_the_text": "as §1"}, "[18]": {"system": "S. marcescens US 20", "assay": "Antibacterial activity, broth MIC", "details": "Serratia marcescens, US20; compound alone, broth; read-out: Broth MIC", "from_the_text": "as §1"}, "[19]": {"system": "P. aeruginosa A", "assay": "Antibacterial activity, broth MIC", "details": "Pseudomonas aeruginosa, compound alone", "from_the_text": "as §1"}, "[20]": {"system": "β-lactamase producing organisms", "assay": "β-Lactamase inhibitory activity: synergistic properties", "details": "addition of the compound, Tables 2-5", "from_the_text": "(§2) These tables show the MIC values of amoxycillin, cephaloridine, ticarcillin and apalcillin against a number of β-lactamase producing organisms."}, "[21]": {"system": "S. aureus MB9", "assay": "β-Lactamase inhibitory activity: antibiotic MIC alone or in combination", "details": "compound alone, 5.0 μg/ml", "from_the_text": "as §2"}, "[22]": {"system": "S. aureus Russell", "assay": "β-Lactamase inhibitory activity: antibiotic MIC alone or in combination", "from_the_text": "as §2"}, "[23]": {"system": "E. cloacae T 153", "assay": "β-Lactamase inhibitory activity: antibiotic MIC alone or in combination", "details": "Enterobacter cloacae, T153; amoxycillin alone"}, "[24]": {"system": "E. cloacae N1", "assay": "β-Lactamase inhibitory activity: antibiotic MIC alone or in combination", "details": "Enterobacter cloacae, N1, amoxycillin alone; read-out: Amoxycillin MIC"}, "[25]": {"system": "E. coli 0111", "assay": "β-Lactamase inhibitory activity: antibiotic MIC alone or in combination", "from_the_text": "as §2"}, "[26]": {"system": "P. mirabilis 977", "assay": "β-Lactamase inhibitory activity: antibiotic MIC alone or in combination", "details": "Proteus mirabilis, 977, amoxycillin alone; read-out: Amoxycillin MIC", "from_the_text": "as §2"}, "[27]": {"system": "C. freundii E8", "assay": "β-Lactamase inhibitory activity: antibiotic MIC alone or in combination", "from_the_text": "as §2"}, "[28]": {"system": "P. morganii 1580", "assay": "β-Lactamase inhibitory activity: antibiotic MIC alone or in combination", "from_the_text": "as §2"}, "[29]": {"system": "P. vulgaris WO91", "assay": "β-Lactamase inhibitory activity: antibiotic MIC alone or in combination", "from_the_text": "as §2"}, "[30]": {"system": "E. coli JT20R+", "assay": "β-Lactamase inhibitory activity: antibiotic MIC alone or in combination", "details": "Escherichia coli, read-out: Amoxycillin MIC", "from_the_text": "as §2"}, "[31]": {"system": "K. aerogenes I112", "assay": "β-Lactamase inhibitory activity: antibiotic MIC alone or in combination", "from_the_text": "as §2"}, "[32]": {"system": "K. aerogenes Ba95R+", "assay": "β-Lactamase inhibitory activity: antibiotic MIC alone or in combination", "details": "Klebsiella aerogenes, read-out: Amoxycillin MIC", "from_the_text": "as §2"}, "[33]": {"system": "P. rettgeri WM16", "assay": "β-Lactamase inhibitory activity: antibiotic MIC alone or in combination", "from_the_text": "as §2"}, "[34]": {"system": "P. aeruginosa Dalgleish", "assay": "β-Lactamase inhibitory activity: antibiotic MIC alone or in combination", "details": "Pseudomonas aeruginosa; amoxycillin alone; read-out: Amoxycillin MIC", "from_the_text": "as §2"}, "[35]": {"system": "P. mirabilis 889", "assay": "β-Lactamase inhibitory activity: antibiotic MIC alone or in combination", "details": "Proteus mirabilis, 889, amoxycillin alone; read-out: Amoxycillin MIC", "from_the_text": "as §2"}, "[36]": {"system": "E. coli JT410 C+", "assay": "β-Lactamase inhibitory activity: antibiotic MIC alone or in combination", "details": "amoxycillin alone", "from_the_text": "as §2"}, "[37]": {"system": "C. freundii B10R+", "assay": "β-Lactamase inhibitory activity: antibiotic MIC alone or in combination", "details": "Citrobacter freundii, read-out: Amoxycillin MIC", "from_the_text": "as §2"}, "[38]": {"system": "P. aeruginosa A", "assay": "β-Lactamase inhibitory activity: antibiotic MIC alone or in combination", "details": "Pseudomonas aeruginosa; amoxycillin alone; read-out: Amoxycillin MIC", "from_the_text": "as §2"}, "[39]": {"system": "E. coli JT39R+", "assay": "β-Lactamase inhibitory activity: antibiotic MIC alone or in combination", "from_the_text": "as §2"}}, "note": "Values joined by “and” are separate entries in the source; they are usually repeats but may differ in a detail not shown here. Equal entries are not always repeated.", "data": [{"smiles": "C/C=C1/C(=O)N2C(C(=O)O)=C(SCC)SC12", "note": "(racemic) [Compound 27, (5RS)-Sodium(Z)-6-Ethylidene-2-ethylthiopenem-3-carboxylate]", "values": [{"measurement": "MIC", "setting": "[1]", "value": 16, "unit": "µg/mL"}, {"measurement": "MIC", "setting": "[2]", "value": 16, "unit": "µg/mL"}, {"measurement": "MIC", "setting": "[3]", "value": 31, "unit": "µg/mL"}, {"measurement": "MIC", "setting": "[4]", "value": 2, "unit": "µg/mL"}, {"measurement": "MIC", "setting": "[5]", "value": 31, "unit": "µg/mL"}, {"measurement": "MIC", "setting": "[6]", "value": 31, "unit": "µg/mL"}, {"measurement": "MIC", "setting": "[7]", "value": 62, "unit": "µg/mL"}, {"measurement": "MIC", "setting": "[8]", "value": 250, "unit": "µg/mL"}, {"measurement": "MIC", "setting": "[9]", "value": 4, "unit": "µg/mL"}, {"measurement": "MIC", "setting": "[10]", "value": 4, "unit": "µg/mL"}, {"measurement": "MIC", "setting": "[11]", "value": 16, "unit": "µg/mL"}, {"measurement": "MIC", "setting": "[12]", "value": 31, "unit": "µg/mL"}, {"measurement": "MIC", "setting": "[13]", "value": 2, "unit": "µg/mL"}, {"measurement": "MIC", "setting": "[14]", "value": 31, "unit": "µg/mL"}, {"measurement": "MIC", "setting": "[15]", "value": 31, "unit": "µg/mL"}, {"measurement": "MIC", "setting": "[16]", "value": 31, "unit": "µg/mL"}, {"measurement": "MIC", "setting": "[17]", "value": 16, "unit": "µg/mL"}, {"measurement": "MIC", "setting": "[18]", "value": 62, "unit": "µg/mL"}, {"measurement": "MIC", "setting": "[19]", "value": "> 500", "unit": "µg/mL"}, {"measurement": "Effect on MIC of amoxycillin, cephaloridine, ticarcillin and apalcillin", "setting": "[20]", "value": "marked decrease in the MIC"}, {"measurement": "Inhibition by compound alone (footnote)", "setting": "[21]", "value": "inhibitory"}, {"measurement": "Inhibition by compound alone (footnote)", "setting": "[22]; compound alone, 5.0 μg/ml", "value": "inhibitory"}]}, {"smiles": "CC1(C)S[C@@H]2[C@H](NC(=O)[C@H](N)c3ccc(O)cc3)C(=O)N2[C@H]1C(=O)O", "note": "[Amoxycillin]", "values": [{"measurement": "MIC", "setting": "[23]", "value": 1000, "unit": "µg/mL"}, {"measurement": "MIC", "setting": "[24]", "value": 500, "unit": "µg/mL"}, {"measurement": "MIC", "setting": "[25]; Escherichia coli, 0111, amoxycillin alone, read-out: Amoxycillin MIC", "value": 10, "unit": "µg/mL"}, {"measurement": "Amoxycillin MIC", "setting": "[25]; amoxycillin alone", "value": "5 µg/mL and 5.0 µg/mL"}, {"measurement": "MIC", "setting": "[26]", "value": 2.5, "unit": "µg/mL"}, {"measurement": "MIC", "setting": "[27]; Citrobacter freundii, E8, amoxycillin alone, read-out: Amoxycillin MIC", "value": 250, "unit": "µg/mL"}, {"measurement": "Amoxycillin MIC", "setting": "[27]; amoxycillin alone", "value": 500, "unit": "µg/mL"}, {"measurement": "MIC", "setting": "[28]; Morganella morganii, 1580, amoxycillin alone, read-out: Amoxycillin MIC", "value": 1000, "unit": "µg/mL"}, {"measurement": "Amoxycillin MIC", "setting": "[28]; amoxycillin alone", "value": "> 1000", "unit": "µg/mL"}, {"measurement": "MIC", "setting": "[29]; Proteus vulgaris, WO91, amoxycillin alone, read-out: Amoxycillin MIC", "value": "> 1000", "unit": "µg/mL"}, {"measurement": "Amoxycillin MIC", "setting": "[29]; amoxycillin alone", "value": 1000, "unit": "µg/mL"}, {"measurement": "MIC", "setting": "[30]", "value": "> 1000", "unit": "µg/mL"}, {"measurement": "MIC", "setting": "[31]; Klebsiella aerogenes, I112, read-out: Amoxycillin MIC, amoxycillin alone", "value": 500, "unit": "µg/mL"}, {"measurement": "Amoxycillin MIC", "setting": "[31]; amoxycillin alone", "value": 250, "unit": "µg/mL"}, {"measurement": "MIC", "setting": "[32]", "value": "> 1000", "unit": "µg/mL"}, {"measurement": "MIC", "setting": "[22]; Staphylococcus aureus, amoxycillin alone, read-out: Amoxycillin MIC", "value": 100, "unit": "µg/mL"}, {"measurement": "MIC", "setting": "[33]; Providencia rettgeri, WM16, amoxycillin alone, read-out: Amoxycillin MIC", "value": 1000, "unit": "µg/mL"}, {"measurement": "Amoxycillin MIC", "setting": "[33]; amoxycillin alone", "value": 500, "unit": "µg/mL"}, {"measurement": "MIC", "setting": "[34]", "value": "> 1000", "unit": "µg/mL"}, {"measurement": "MIC", "setting": "[35]", "value": "> 1000", "unit": "µg/mL"}, {"measurement": "MIC", "setting": "[36]; Escherichia coli, read-out: Amoxycillin MIC", "value": 250, "unit": "µg/mL"}, {"measurement": "Amoxycillin MIC", "setting": "[36]", "value": 500, "unit": "µg/mL"}, {"measurement": "MIC", "setting": "[37]", "value": "> 1000", "unit": "µg/mL"}, {"measurement": "MIC", "setting": "[38]", "value": "> 1000", "unit": "µg/mL"}, {"measurement": "MIC", "setting": "[39]; Escherichia coli, read-out: Amoxycillin MIC, amoxycillin alone", "value": "> 1000", "unit": "µg/mL"}, {"measurement": "Amoxycillin MIC", "setting": "[39]; amoxycillin alone", "value": 1000, "unit": "µg/mL"}]}]}
